Publication doi:10.1101/2024.01.05.573888v1 (biorxiv, 2024)
Where two headings read alike, the source gives them in different places.

Experiments:
Test in all cases: ITC
Assay type in all cases: binding
PaKPR2 [1] = molecular target: T1, PaKPR2 (Pseudomonas aeruginosa, UniProt A0A0H2Z9K5)
T1 sequence (A0A0H2Z9K5 1-315): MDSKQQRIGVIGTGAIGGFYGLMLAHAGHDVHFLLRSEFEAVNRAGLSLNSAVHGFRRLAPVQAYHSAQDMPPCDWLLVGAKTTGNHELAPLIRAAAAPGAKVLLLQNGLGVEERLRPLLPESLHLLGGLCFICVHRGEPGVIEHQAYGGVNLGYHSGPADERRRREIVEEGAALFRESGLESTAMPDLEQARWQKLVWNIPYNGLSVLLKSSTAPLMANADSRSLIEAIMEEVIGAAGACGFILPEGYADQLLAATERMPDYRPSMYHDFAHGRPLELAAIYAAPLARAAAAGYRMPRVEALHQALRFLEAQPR

PaKPR2 [2] = molecular target: T1, PaKPR2; remark: listed apart in the source
PaKPR2 [3] = molecular target: T1, PaKPR2; remark: listed apart in the source

SMILES: O=C(O)C(=O)c1ccco1 [2-Furyl glyoxylate]
- Kd (PaKPR2 [1]): 0.392 µM

SMILES: NC(=O)C1=CN([C@@H]2O[C@H](COP(=O)(O)OP(=O)(O)OC[C@H]3O[C@@H](n4cnc5c(N)ncnc54)[C@H](O)[C@@H]3O)[C@@H](O)[C@H]2O)C=CC1 [NADH]
- Kd (PaKPR2 [1]): 98 µM

SMILES: CC[C@H](C)C(=O)C(=O)O [3methyl 2 ketopentanoate]
- Kd (PaKPR2 [2]): 11.2 µM

SMILES: O=C(O)C(=O)c1ccccc1 [Phenyl glyoxylate]
- Kd (PaKPR2 [1]): 3.53 µM

SMILES: NC(=O)C1=CN([C@@H]2O[C@H](COP(=O)(O)OP(=O)(O)OC[C@H]3O[C@@H](n4cnc5c(N)ncnc54)[C@H](OP(=O)(O)O)[C@@H]3O)[C@@H](O)[C@H]2O)C=CC1 [NADPH]
- Kd (PaKPR2 [2]): 7.68 µM

SMILES: CC(C)CC(=O)C(=O)O [2-ketoisocaproate]
- Kd (PaKPR2 [3]): 3.05 µM

SMILES: O=C(O)C(=O)CCc1ccccc1 [2-oxo-4-phenylbutanoic acid]
- Kd (PaKPR2 [1]): 9.09 µM

SMILES: O=C(O)C(=O)c1cccs1
- Kd (PaKPR2 [1]): 1.34 µM
